PubChem BioAssay (NCI)
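96-well plates; 48 h exposure; 5 concentrations. Endpoints by linear interpolation between flanking doses. Not reached: highest tested concentration assigned. At the GI50, growth is halved. At the TGI there is no net growth.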

What was measured:
Experiment in all cases: growth of human tumour cells (NCI), 48 h
K-562 leukemia = test system: K-562 leukemia
UACC-62 melanoma = test system: UACC-62 melanoma
U251 CNS = test system: U251 CNS
786-0 renal = test system: 786-0 renal
HCT-116 colon = test system: HCT-116 colon
DU-145 prostate = test system: DU-145 prostate
CAKI-1 renal = test system: CAKI-1 renal
NCI-H522 lung = test system: NCI-H522 lung
HCT-15 colon = test system: HCT-15 colon
HL-60(TB) leukemia = test system: HL-60(TB) leukemia

CSC(SC)(C(=O)O)c1cc(-c2c(Cl)cccc2Cl)no1
TGI (K-562 leukemia): > 100 µM | TGI (UACC-62 melanoma): > 100 µM | TGI (U251 CNS): > 100 µM | TGI (786-0 renal): > 100 µM | TGI (HCT-116 colon): > 100 µM | TGI (DU-145 prostate): > 100 µM | TGI (CAKI-1 renal): > 100 µM | TGI (NCI-H522 lung): 80.3 µM | TGI (HCT-15 colon): 41.9 µM

O=S(=O)(C1=CC(S(=O)(=O)c2ccccc2)CN(Cc2ccccc2)C1c1cccc2ccccc12)c1ccccc1 (stereo not given)
TGI (K-562 leukemia): > 69 µM | TGI (UACC-62 melanoma): > 69 µM | TGI (U251 CNS): > 69 µM | TGI (786-0 renal): > 69 µM | TGI (HCT-116 colon): > 69 µM | TGI (HL-60(TB) leukemia): > 69 µM | TGI (CAKI-1 renal): > 69 µM | TGI (NCI-H522 lung): > 69 µM | TGI (HCT-15 colon): > 69 µM

Cc1cc(Cl)ccc1OCC(=O)Nc1nc2c(Cl)cccc2s1
GI50 (K-562 leukemia): 7.25 µM | TGI (K-562 leukemia): > 100 µM | GI50 (UACC-62 melanoma): 7.41 µM | TGI (UACC-62 melanoma): > 100 µM | GI50 (U251 CNS): 8.32 µM | TGI (U251 CNS): 25.2 µM | GI50 (786-0 renal): 26.4 µM | TGI (786-0 renal): > 100 µM | GI50 (DU-145 prostate): 26.4 µM | TGI (DU-145 prostate): > 100 µM | GI50 (HL-60(TB) leukemia): 5.63 µM | TGI (HL-60(TB) leukemia): > 100 µM | GI50 (CAKI-1 renal): > 100 µM | TGI (CAKI-1 renal): > 100 µM | GI50 (NCI-H522 lung): 46.9 µM | TGI (NCI-H522 lung): > 100 µM | GI50 (HCT-15 colon): 6.49 µM | TGI (HCT-15 colon): > 100 µM

Cc1ccc(S(=O)(=O)N/N=C2\CCCCC23CCC(=O)NC3)cc1 (stereo not given)
TGI (K-562 leukemia): > 100 µM | TGI (UACC-62 melanoma): > 100 µM | TGI (U251 CNS): > 100 µM | TGI (786-0 renal): > 100 µM | TGI (HCT-116 colon): > 100 µM | TGI (HL-60(TB) leukemia): > 100 µM | TGI (CAKI-1 renal): > 100 µM | TGI (NCI-H522 lung): > 100 µM | TGI (HCT-15 colon): > 100 µM

O=C(Nc1ccc(C(F)(F)F)cc1[N+](=O)[O-])C(=O)C1NC(=S)NC1=O (stereo not given)
TGI (K-562 leukemia): > 100 µM | TGI (UACC-62 melanoma): > 100 µM | TGI (U251 CNS): > 100 µM | TGI (786-0 renal): > 100 µM | TGI (HCT-116 colon): > 100 µM | TGI (HL-60(TB) leukemia): > 100 µM | TGI (CAKI-1 renal): > 100 µM | TGI (NCI-H522 lung): > 100 µM | TGI (HCT-15 colon): > 100 µM

COc1ccc(NC(=O)CC/C(CC(=O)c2ccco2)=N/NC(=O)C(N)=O)cc1
TGI (K-562 leukemia): > 100 µM | TGI (UACC-62 melanoma): > 100 µM | TGI (786-0 renal): > 100 µM | TGI (HL-60(TB) leukemia): > 100 µM | TGI (CAKI-1 renal): > 100 µM | TGI (NCI-H522 lung): > 100 µM | TGI (HCT-15 colon): > 100 µM

CCN1CCCc2cc3c(C(F)(F)F)cc(=O)oc3cc21
TGI (K-562 leukemia): > 100 µM | TGI (UACC-62 melanoma): > 100 µM | TGI (U251 CNS): > 100 µM | TGI (786-0 renal): > 100 µM | TGI (HCT-116 colon): > 100 µM | TGI (DU-145 prostate): > 100 µM | TGI (CAKI-1 renal): > 100 µM | TGI (NCI-H522 lung): > 100 µM | TGI (HCT-15 colon): > 100 µM

CC(=O)Oc1c(C)c(-c2ccccc2)c(C)c(-c2ccccc2)c1C(=S)c1ccccc1
TGI (K-562 leukemia): > 100 µM | TGI (UACC-62 melanoma): > 100 µM | TGI (U251 CNS): > 100 µM | TGI (786-0 renal): > 100 µM | TGI (HCT-116 colon): > 100 µM | TGI (HL-60(TB) leukemia): > 100 µM | TGI (NCI-H522 lung): > 100 µM | TGI (HCT-15 colon): > 100 µM

COc1ccc([C@@]2(O)c3c(ccc(O)c3OC)[C@H]2OC)c(OC)c1
TGI (K-562 leukemia): > 100 µM | TGI (U251 CNS): > 100 µM | TGI (786-0 renal): > 100 µM | TGI (HCT-116 colon): > 100 µM | TGI (HL-60(TB) leukemia): > 100 µM | TGI (CAKI-1 renal): > 100 µM | TGI (NCI-H522 lung): 85.4 µM

CNC(=O)OCc1c(COC(=O)NC)c(-c2ccc(-c3ccccc3)cc2)n(C)c1C
TGI (UACC-62 melanoma): 5.46 µM | TGI (U251 CNS): 10.9 µM | TGI (786-0 renal): 10.2 µM | TGI (HCT-116 colon): 14.1 µM | TGI (DU-145 prostate): 9.4 µM | TGI (HL-60(TB) leukemia): 18.1 µM | TGI (CAKI-1 renal): 5.14 µM | TGI (NCI-H522 lung): 4.04 µM | TGI (HCT-15 colon): 9.43 µM

CCN1C(=O)/C(=C/c2c(Cl)[nH]c3cc(C)c(OC)cc23)c2ccccc21
GI50 (K-562 leukemia): 3.03 µM | TGI (K-562 leukemia): > 100 µM | GI50 (UACC-62 melanoma): 0.526 µM | TGI (UACC-62 melanoma): 23.7 µM | GI50 (U251 CNS): 4.53 µM | TGI (U251 CNS): 20.2 µM | GI50 (786-0 renal): 4.87 µM | TGI (786-0 renal): 21.3 µM | GI50 (HCT-116 colon): 3.78 µM | TGI (HCT-116 colon): 16.8 µM | GI50 (DU-145 prostate): 3.29 µM | TGI (DU-145 prostate): > 100 µM | GI50 (CAKI-1 renal): 5.45 µM | TGI (CAKI-1 renal): > 100 µM | GI50 (NCI-H522 lung): 0.823 µM | TGI (NCI-H522 lung): 6.58 µM | GI50 (HCT-15 colon): 4.19 µM | TGI (HCT-15 colon): > 100 µM

COc1cc(NS(=O)(=O)c2ccc(C)cc2)c2nccnc2c1
TGI (K-562 leukemia): > 100 µM | TGI (UACC-62 melanoma): 34.6 µM | TGI (U251 CNS): 89.3 µM | TGI (786-0 renal): > 100 µM | TGI (HL-60(TB) leukemia): 51.7 µM | TGI (CAKI-1 renal): > 100 µM | TGI (NCI-H522 lung): 70.2 µM | TGI (HCT-15 colon): > 100 µM

O=C1C=C(Nc2ccccc2C(=O)CC(=O)C(=O)Nc2cccc([N+](=O)[O-])c2)c2ccccc2C1=O
TGI (K-562 leukemia): > 100 µM | TGI (UACC-62 melanoma): 86.8 µM | TGI (U251 CNS): > 100 µM | TGI (786-0 renal): > 100 µM | TGI (HCT-116 colon): > 100 µM | TGI (HL-60(TB) leukemia): 15.6 µM | TGI (CAKI-1 renal): > 100 µM | TGI (NCI-H522 lung): 70.6 µM | TGI (HCT-15 colon): > 100 µM

CCCC1(CC(=O)O)OCCc2c1[nH]c1ccccc21 (stereo not given)
TGI (K-562 leukemia): > 100 µM | TGI (UACC-62 melanoma): > 100 µM | TGI (U251 CNS): > 100 µM | TGI (786-0 renal): > 100 µM | TGI (HL-60(TB) leukemia): > 100 µM | TGI (CAKI-1 renal): > 100 µM | TGI (HCT-15 colon): > 100 µM

COC(=O)C(=O)CC(=O)CCn1[nH]c(=O)c(Cl)c(Cl)c1=O
TGI (K-562 leukemia): > 100 µM | TGI (UACC-62 melanoma): > 100 µM | TGI (U251 CNS): > 100 µM | TGI (786-0 renal): > 100 µM | TGI (HCT-116 colon): > 100 µM | TGI (HL-60(TB) leukemia): > 100 µM | TGI (CAKI-1 renal): > 100 µM | TGI (NCI-H522 lung): > 100 µM | TGI (HCT-15 colon): > 100 µM

COc1ccc2c(c1)C(=O)CCc1cc(OC)c(OC)c(OC)c1-2
GI50 (K-562 leukemia): < 0.01 µM | TGI (K-562 leukemia): > 100 µM | GI50 (UACC-62 melanoma): < 0.01 µM | TGI (UACC-62 melanoma): > 100 µM | GI50 (U251 CNS): < 0.01 µM | TGI (U251 CNS): 0.18 µM | GI50 (786-0 renal): < 0.01 µM | TGI (786-0 renal): > 100 µM | GI50 (HCT-116 colon): < 0.01 µM | TGI (HCT-116 colon): > 100 µM | GI50 (DU-145 prostate): < 0.01 µM | GI50 (CAKI-1 renal): < 0.01 µM | TGI (CAKI-1 renal): > 100 µM | GI50 (HCT-15 colon): < 0.01 µM | TGI (HCT-15 colon): > 100 µM

Cc1ccc(S(=O)(=O)N=Nc2c(O)[nH]c3cc(O)c(C(=O)O)cc23)cc1
TGI (K-562 leukemia): > 100 µM | TGI (UACC-62 melanoma): > 100 µM | TGI (U251 CNS): > 100 µM | TGI (786-0 renal): > 100 µM | TGI (HCT-116 colon): > 100 µM | TGI (DU-145 prostate): > 100 µM | TGI (CAKI-1 renal): > 100 µM | TGI (NCI-H522 lung): > 100 µM | TGI (HCT-15 colon): > 100 µM

CC(C)CNc1nc(-c2ccccc2Cl)nc2ccccc12
GI50 (K-562 leukemia): 16.8 µM | TGI (K-562 leukemia): 43.5 µM | GI50 (UACC-62 melanoma): 14.3 µM | TGI (UACC-62 melanoma): 27.4 µM | GI50 (U251 CNS): 16.9 µM | TGI (U251 CNS): 30.5 µM | GI50 (786-0 renal): 16.8 µM | TGI (786-0 renal): 30.4 µM | GI50 (HCT-116 colon): 16.6 µM | TGI (HCT-116 colon): 30.2 µM | GI50 (DU-145 prostate): 16.1 µM | TGI (DU-145 prostate): 30.5 µM | GI50 (CAKI-1 renal): 15 µM | TGI (CAKI-1 renal): 32.7 µM | GI50 (NCI-H522 lung): 25.5 µM | TGI (NCI-H522 lung): > 100 µM | GI50 (HCT-15 colon): 17.1 µM | TGI (HCT-15 colon): 32.1 µM

CC/C=C\C[C@H]1CC=C2C(=O)C=C[C@@H]2CC=CCCCC(=O)O[C@@H](CCCCC)CC=C2C(=O)C=C[C@@H]2CC=CCCCC(=O)O[C@@H](CCCCC)CC=C2C(=O)C=C[C@@H]2CC=CCCCC(=O)O[C@@H](CCCCC)CC=C2C(=O)C=C[C@@H]2CC=CCCCC(=O)O1
GI50 (K-562 leukemia): 2.5 µM | TGI (K-562 leukemia): > 7.9 µM | GI50 (UACC-62 melanoma): 1.52 µM | TGI (UACC-62 melanoma): 3.59 µM | GI50 (U251 CNS): 1.45 µM | TGI (U251 CNS): 3.13 µM | GI50 (786-0 renal): 2.29 µM | TGI (786-0 renal): 6.51 µM | GI50 (HCT-116 colon): 1.3 µM | TGI (HCT-116 colon): 3.06 µM | GI50 (DU-145 prostate): 2.68 µM | TGI (DU-145 prostate): > 7.9 µM | GI50 (HL-60(TB) leukemia): 2.09 µM | TGI (HL-60(TB) leukemia): 6.26 µM | GI50 (NCI-H522 lung): 1.76 µM | TGI (NCI-H522 lung): 4.48 µM | GI50 (HCT-15 colon): 2.84 µM | TGI (HCT-15 colon): > 7.9 µM
